We go through two compounds from US20100092443A1, “NOVEL COMBINATIONS OF NITROGENATED HETEROCYCLIC ANTIBACTERIAL COMPOUNDS WITH OTHER ANTIBACTERIAL COMPOUNDS AND THE USE OF SAME AS DRUGS” (priority 2008, published 2010).

The structures appear in SMILES notation. Structures can show the parent of a compound that is named as a salt.

Assay [1] deals with P. aeruginosa (391 HT2). Kind of assay: MICs determined on microplates. Type of assay: cell-based, Pseudomonas aeruginosa. The note with it: sensitive strain P. aeruginosa 391 HT2. The protocol: (§1) The minimum inhibitory concentrations (MICs) of the products to be tested (products alone and combinations) are determined in advance. • For each concentration of product to be tested as well as the control stock, an Erlenmeyer flask containing 18.5 ml Muller-Hinton medium (Ca^++) is prepared. • From an overnight culture in broth or a bacterial suspension of OD (optical density)=1, a 1/100 dilution is prepared. • The sample is cultured with agitation for 2 h at 37° C. • OD is measured: if >0.5, the sample is diluted to 1/10. • Each Erlenmeyer flask is inoculated with 1 ml of the agitated culture or its dilution. The initial inoculum should be 1×10^6 CFU/ml. • The various antibiotic solutions are added at a volume of 0.5 ml and 0.5 ml of medium in the control Erlenmeyer flask. • With a volume of 0.1 ml, the control Erlenmeyer flask is numbered=TO. • The flask is incubated at 37° C. with agitation. • At each sampling point (2, 4, 6, 24, 48 hours), a volume of 0.1 ml is sampled from each Erlenmeyer flask and numbered. • Plates for all the numbered samples are incubated (24 h-48 h) at 37° C.
Bactericidal activity was evaluated on a sensitive strain of P. aeruginosa (391 HT2)

Assay [2] relates to P. aeruginosa (391 HT2). Kind of assay: MICs in a volume of 10 ml, bactericidal conditions (exponential bacterial growth). Type of assay: cell-based, Pseudomonas aeruginosa. How it is done:
as §1
For the bactericidal tests, MICs are determined in a volume of 10 ml-bactericidal conditions (exponential bacterial growth): […]

Regarding `Cn1ncc2c1[C@@H](CN)N1C[C@H]2N(OS(=O)(=O)O)C1=O` (relative stereo) [NXL105, Sodium and Trifluoroacetate Salts of trans 8-(aminomethyl)-4,8-dihydro-1-methyl-5-(sulphooxy)-4,7-methano-7H-pyrazolo[3,4-e][1,3]diazepin-6(5H)-one], the “MIC determined on microplates” value in assay [1] worked out at 0.25 µg/mL. Further, in assay [2], the “MIC in a volume of 10 ml, bactericidal conditions” value worked out at 0.25 µg/mL.
One may read the MIC as the lowest concentration that inhibits growth of the organism. As for `CC(C)(O/N=C(\C(=O)N[C@@H]1C(=O)N2C(C(=O)[O-])=C(C[n+]3ccccc3)CS[C@H]12)c1csc(N)n1)C(=O)O` [Ceftazidime], the values for the MIC in assay [1] (Pseudomonas aeruginosa) and in assay [2] (Pseudomonas aeruginosa) were 2 µg/mL and 8 µg/mL, respectively.
